Data from the supplement of paper PMC10307832.

Assays:
Experiment in all cases: relative viability (nuclei count vs DMSO), 5 days (fraction); higher = more cells survive
[1] = compound: C1=CC=C2C(=C1)N=C(S2)C(C#N)C3=NC(=NC=C3)NCCC4=CN=CC=C4 + CC1(C)CCC(c2ccc(Cl)cc2)=C(CN2CCN(c3ccc(C(=O)NS(=O)(=O)c4ccc(N[C@H](CCN5CCOCC5)CSc5ccccc5)c(S(=O)(=O)C(F)(F)F)c4)cc3)CC2)C1 [Navitoclax] (partner 0.5 µM)
Summary of the method: (§1)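 Lung cancer cell lines were seeded in 1536-well plates and dosed by pin tool the next day, with either a single drug or a fixed anchor-drug dose combined with five library-drug doses (not always all listed) spaced in √10 steps. Five days later, one step fixed the cells and stained their nuclei (final 0.05% Triton X-100, 1% formaldehyde, 1 ug/ml Hoechst), and nuclei were counted on 4× images. Relative viability is the nuclei count in treated wells divided by the count in vehicle wells, and each value is the median of duplicate plates.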

Vandetanib + Tozasertib = compound: COc1cc2/c(=N/c3ccc(Br)cc3F)nc[nH]c2cc1OCC1CCN(C)CC1 [Vandetanib] + Cc1cc(Nc2cc(N3CCN(C)CC3)nc(Sc3ccc(NC(=O)C4CC4)cc3)n2)n[nH]1 [Tozasertib] (partner 0.1 µM)
Summary of the method: as §1

NVP-TAE684 + Linsitinib = compound: COc1cc(N2CCC(N3CCN(C)CC3)CC2)ccc1Nc1ncc(Cl)c(Nc2ccccc2S(=O)(=O)C(C)C)n1 [NVP-TAE684] + C[C@]1(O)C[C@@H](c2nc(-c3ccc4ccc(-c5ccccc5)nc4c3)c3c(N)nccn32)C1 [Linsitinib] (partner 1 µM)
Summary of the method: as §1

NVP-TAE684 + Bortezomib = compound: COc1cc(N2CCC(N3CCN(C)CC3)CC2)ccc1Nc1ncc(Cl)c(Nc2ccccc2S(=O)(=O)C(C)C)n1 [NVP-TAE684] + CC(C)C[C@H](NC(=O)[C@H](Cc1ccccc1)NC(=O)c1cnccn1)B(O)O [Bortezomib] (partner 0.002 µM)
Summary of the method: as §1

Row | Cell Line | relative viability ([1]; first compound 0.005 µM) | relative viability ([1]; first compound 0.01581 µM) | relative viability ([1]; first compound 0.05 µM) | relative viability ([1]; first compound 0.1581 µM) | relative viability ([1]; first compound 0.5 µM) | relative viability (Vandetanib + Tozasertib; first compound 0.02 µM) | relative viability (Vandetanib + Tozasertib; first compound 0.06325 µM) | relative viability (Vandetanib + Tozasertib; first compound 0.2 µM) | relative viability (Vandetanib + Tozasertib; first compound 0.6325 µM) | relative viability (Vandetanib + Tozasertib; first compound 2 µM) | relative viability (NVP-TAE684 + Linsitinib; first compound 0.2 µM) | relative viability (NVP-TAE684 + Linsitinib; first compound 0.6325 µM) | relative viability (NVP-TAE684 + Linsitinib; first compound 2 µM) | relative viability (NVP-TAE684 + Bortezomib; first compound 0.2 µM) | relative viability (NVP-TAE684 + Bortezomib; first compound 0.6325 µM) | relative viability (NVP-TAE684 + Bortezomib; first compound 2 µM)
1 | NCI-H727 | 0.465 | 0.334 | 0.347 | 0.414 | 0.397 | 0.689 | 0.498 | 0.504 | 0.529 | 0.488 | 0.331 | 0.284 | 0.216 | 0.684 | 0.887 | 0.506
2 | BEN | 0.0669 | 0.0686 | 0.0618 | 0.134 | 0.0603 | 0.582 | 0.464 | 0.521 | 0.462 | 0.452 | 0.804 | 0.904 | 0.848 | 0.784 | 0.817 | 0.679
3 | NCI-H441 |  | 0.625 | 0.513 | 0.575 | 0.48 | 0.744 | 0.668 | 0.283 | 0.853 | 0.768 | 0.521 | 0.627 | 0.472 | 0.516 | 0.358 | 0.204
4 | NCI-H1915 | 0.802 | 0.805 | 0.762 | 0.77 | 0.775 | 0.424 | 0.422 | 0.438 | 0.419 | 0.412 | 1.16 | 1.18 | 1.01 | 1.09 | 1.03 | 1.05
5 | HCC-366 | 0.853 | 0.998 | 1.04 | 1.28 | 0.98 | 0.125 | 0.112 | 0.0453 | 0.174 | 0.0919 | 0.605 | 0.621 | 0.455 | 0.855 | 1.08 | 1.17
6 | SK-LU-1 |  | 0.828 | 0.694 | 1.02 | 1.02 | 0.36 | 0.361 | 0.133 | 0.292 | 0.317 | 1.19 | 1.2 | 0.693 | 1.21 | 1.08 | 1.01
7 | NCI-H1666 | 0.841 | 0.937 | 0.965 | 1.05 | 0.797 | 0.606 | 0.581 | 0.387 | 0.577 | 0.633 | 0.828 | 0.605 | 0.591 | 0.849 | 0.71 | 0.4
8 | COR-L23 | 0.929 | 0.94 | 1.1 | 1.04 | 1.15 | 0.189 | 0.241 | 0.218 | 0.223 | 0.222 | 0.871 | 0.937 | 0.419 |  | 1.04 | 0.616
9 | NCI-H460 |  | 1.38 | 1.13 | 1.23 | 0.656 | 0.399 | 0.432 | 0.371 | 0.391 | 0.457 | 0.732 | 0.911 | 0.298 | 1.77 | 1.2 | 0.593
